The text below walks through data of patent US20230151309A1, “PLANT-BASED HYDROALCOHOLIC FORMULATIONS FOR IMPROVING LIVER HEALTH” (priority 2021, published 2023).

Data set [1] is described as follows: EGCG level in the botanical-infused alcoholic composition by LC-MS/MS (EGCG stability). The format is physicochemical. The settings on record: final alcoholic composition, pH below 4.65. As for the experimental part: Intracellular ATP was expressed as % ATP vs. Vehicle Control. Data points represent mean±SEM of N=3 replicates.
The samples were tested by LC-MS/MS using a Waters Acquity UPLC system in-line with a Waters Xevo TO-S mass spectrometer via an electrospray interface. An EGCG powdered standard was purchased from Sigma-Aldrich. The EGCG standard was prepared as a 1 mg/mL solution in PBS containing 0.2% ascorbic acid and 0.005% EDTA to calculate the standard curve. EGCG was spiked into intestinal media at a 5% ratio of standard to media (% v/v). EGCG internal standard (IS) was prepared as a 200 ng/ml solution also using PBS containing 0.2% ascorbic acid and 0.005% EDTA. Ten μL of EGCG IS was added to 25 μL of EGCG standard, vortex mixed, and 2× extracted with 350 μL of ethyl acetate. […]
EGCG and samples of the alcoholic beverage composition were separated using a 1.0 mm×100 mm Waters HSS T3 column with 0.3% acetic acid/HO as mobile phase A and 0.3% acetic acid/acetonitrile as mobile. phase B. For gradient elution, initial B was 1%, increased to 95% Bat 2 minutes, 95% Bat 4 minutes, and back to 1% Bat 4.5 minutes. […] Data was analyzed using Waters Targetlynx application software and automatically exported as a CSV file for reporting.
EGCG was detected in the final alcoholic composition. […]

Another data set has as its system intestinal tissue. Nature of the data set: Intestinal tissue viability by MTT assay (HuDMOP). The note with it: 100 μL, 24 hr, % viable vs. vehicle control. The format is cell-based, human. Background: Tetrazolium assays rely on reduction of a dye to a coloured formazan, in cell work by metabolically active cells.
A short description of data set [2]: EGCG kinetics in two-compartment HuDMOP (intestine to liver to perfusate), LC-MS/MS. It is filed as in vitro ADME, human. The source says: The human dynamic multiple organ plate (HuDMOP) developed by IONTOX (U.S. Pat. No. 9,631,167 B2) was used for testing. This plate is an accepted and unique state-of-the-art in vitro platform for evaluating drugs and chemicals. The FDA recognizes such in vitro models that provide comparative information of relative toxicity between an FDA approved compound and a new submission or in vitro data that focuses on mechanism. The HuDMOP system allows collection of intestinal absorption data, pharmacokinetic data, safety, and efficacy in a single model and can feature up to 6 organ compartments. Flow between the compartments is controlled through selection of dialysis membrane appropriate for the relevant organ systems, pressures, and membrane areas. The HuDMOP system is also used to generate data to support efficacy claims for botanicals.
Simulated blood consisted of saline with human serum albumin.
Epigallocatechin gallate (EGCG) from the novel composition was used to track its intestinal permeability, its movement into simulated blood and delivery to the liver. EGCG content was measured by LC-MS/MS (FIG. 6).

Another data set concerns Fa2N-4 cells. The settings on record: human, 24 h.
For data set [3], the system named is NADPH Quinone Dehydrogenase 1 (NQO1). The note with it: liver cells, 12 and 24 hr post exposure.
From the text: (§1) The model consisted of human 3D epidermal model (Epiltestinal tissue from MarTek) linked to HepG2 cells (Liver) linked by unidirectional simulated blood flow. Simulated blood consisted of saline with human serum albumin.
(§2) Total RNA from the liver cells was obtained following the 12 and 24 hr time points post exposure to look at specific gene expression (NQO1, HMOX1, GSR) that are part of a group that protect the cell from oxidative stress and inflammation. An increase in fold change >2 is typically considered biologically relevant.
RNA was extracted from liver cells using the RNeasy Mini kit along with Proteinase Kand DNase I digestion to remove proteins and gDNA. DNase I was purchased from Qiagen. Total RNA was quantified using the NanoDrop 2000. The RNA obtained was used to measure the expression of the above target genes by RT-qPCR. 10.10. TaqMan* fast virus 1-step master mix (Thermo Fisher) was used. One-Step RT-qPCR was performed using the QuantStudio 5 PCR Instrument from Thermo Fisher and by following the manufacturer's recommended cycling protocol. All primer/probe sets were obtained from Thermo Fisher.
Another data set has as its system Heme oxygenase-1 (HMOX1). The settings on record: liver cells, 12 and 24 hr post exposure.
For data set [4], the system named is Glutathione Reductase (GSR). The note with it: liver cells, 12 and 24 hr post exposure.
From the text: as §1, §2
RNA was extracted from liver cells using the RNeasy Mini kit along with Proteinase Kand DNase I digestion to remove proteins and gDNA. […] Total RNA was quantified using the NanoDrop 2000. The RNA obtained was used to measure the expression of the above target genes by RT-qPCR. […] TaqMan* fast virus 1-step master mix (Thermo Fisher) was used. One-Step RT-qPCR was performed using the QuantStudio 5 PCR Instrument from Thermo Fisher and by following the manufacturer's recommended cycling protocol. All primer/probe sets were obtained from Thermo Fisher.
In the next data set the test system is HepG2 liver cells. Nature of the data set: Reactive oxygen species (DCFDA/H2DCFDA Cellular ROS Assay Kit) in liver cells. The format is cell-based. The settings on record: HepG2, 24 hours; ethanol at 2, 3 and 4%.

“Also recorded” adds a separate entry of the source.

Method for Fa2N-4 cells: Maximum Tolerated Dose is indicated as the % EtOH where viability as assayed using ATP levels diminished to below 50%.
Samples of botanical-infused alcoholic composition were prepared as follows. The samples were diluted to in deionized water to bring the alcohol concentration down to 8%. […] Intracellular ATP was expressed as % ATP vs. Vehicle Control. Data points represent mean±SEM of N=3 replicates.
The samples were also diluted to 6 and 2% alcohol.
From the text for Heme oxygenase-1 (HMOX1): as §1
Total RNA from the liver cells was obtained following the 12 and 24 hr time points post exposure to look at specific gene expression (NQO1, HMOX1, GSR) that are part of a group that protect the cell from oxidative stress and inflammation.
RNA was extracted from liver cells using the RNeasy Mini kit along with Proteinase Kand DNase I digestion to remove proteins and gDNA. DNase I was purchased from Qiagen. Total RNA was quantified using the NanoDrop 2000. The RNA obtained was used to measure the expression of the above target genes by RT-qPCR. […] TaqMan* fast virus 1-step master mix (Thermo Fisher) was used. One-Step RT-qPCR was performed using the QuantStudio 5 PCR Instrument from Thermo Fisher and by following the manufacturer's recommended cycling protocol. All primer/probe sets were obtained from Thermo Fisher.
Method for HepG2 liver cells: Reactive Oxygen Species were measured using the DCFDA/H2DCFDA Cellular ROS Assay Kit from Abeam.
Liver stress was measured by measuring the amount of reactive oxygen species (ROS) produced after exposure to the alcoholic composition. HepG2 liver cells were plated and grown overnight. […] Then the cells were exposed to the Test articles for 24 hours at 37° C. with 5% CO2. […] Amount of ROS was measured using the DCFDA/H2DCFDA Cellular ROS Assay Kit from Abeam.
Data are expressed as Fold Change vs. Negative Control. Bars represent mean±SEM of three replicate samples.
Method for intestinal tissue: as §1
Diluted ethanol (EtOH) alone or a composition of the present invention diluted to the same level as the EtOH alone test are applied to the apical side of the intestine chamber at the start of the experiment. […] The health of the intestinal tissue was measured with a MTT assay. Pure EGCG was also applied as a control. Tissues were dosed with 100 μL of the solutions and were incubated at 37° C. with 5% CO2 for 24 hr. Cell viability was expressed at % viable vs. vehicle control. Data points represent mean±SEM of N=2 replicates.

Take `O=C(O[C@@H]1Cc2c(O)cc(O)cc2O[C@@H]1c1cc(O)c(O)c(O)c1)c1cc(O)c(O)c(O)c1` [EGCG, epigallocatechin gallate]: the “EGCG stability in the composition” value in data set [1] is on record as “stable”. Also, in the data set with intestinal tissue, the “health of the intestinal tissue (cell viability, MTT)” value is “not affected; also recorded: no cytotoxic effect”. For the same molecule, the “time EGCG starts to appear in the lower basolateral chamber” value in data set [2] (after application of composition batch 1 to intestinal tissue) turned out to be 2 h. Further, the “time EGCG appears in the liver” value in data set [2] (after applying composition batch 1 to the intestinal tissue) was 6 h. Further, the “EGCG in perfusate after processing in the liver compartment” value in data set [2] (composition batch 1) is recorded as “remains in the perfusate”. For the same molecule, the “EGCG maximum concentration (Cmax)” value in data set [2] (composition batch 1, after passing the intestinal membrane) was “about 1400 ng/ml”. Besides, the “time of EGCG peak in basolateral chamber” value in data set [2] (composition batch 1, amount constant until 24 hours) was found to be 12 h.

In the case of `CCO` [ethanol], in the data set with intestinal tissue, the “health of the intestinal tissue (cell viability, MTT)” value is “not affected”. Further, the “Maximum Tolerated Dose (ethanol causing 50% response in % ATP)” value in the data set on Fa2N-4 cells stood at 8%. Moreover, the NQO1 gene expression result in data set [3] is recorded as “no increase”. Further, in the data set with Heme oxygenase-1 (HMOX1), the HMOX1 gene expression result is reported as “induces an increase”. The GSR gene expression entry in data set [4] was “does not produce an increase”.

Take `CC(C)(C)OO` [positive control, Tert-butyl hydroperoxide]: the “increase in ROS, Fold Change vs. Negative Control” value with HepG2 liver cells is on record as 22 fold.
